Measured values taken from patent US20260069563A1, “CETOLEIC ACID COMPOSITION” (Epax Norway AS, priority 2022, published 2026).

System: human fibroblasts
Experiment: Wound healing model (scratch wound) in human fibroblasts
Format: cell-based
Conditions: 14 hours after wounding; initial wound area defined as 100%; added to cell culture medium
From the text: Preliminary cell studies with human fibroblasts have been performed to test potential health benefits of LCMUFA in skin.
The main objective of the study was to show whether addition of a LCMUFA concentrate (Cetoleic acid concentrate) or DHA to cell culture medium would: • 1) Influence the capacity of the cells to regenerate after damage (so called “wound healing model”), • 2) Influence the production of melanin (skin pigment), • 3) Influence the expression of genes involved in inflammation after induced oxidative stress.
Wound healing model: Treatment arms included addition of DHA or the LCMUFA contrate to the cell culture medium, respectively. The control was cells only added culture medium, no fatty acids. The effect on closing of wound 14 hours after initiation of a wound was measured.
The initial wound area was defined as 100%, then the wound opening was measured after 14 hours to a percentage of the original wound. The reduction was approximately 60% for LC-MUFA and 50% for DHA, respectively.

CC/C=C\C/C=C\C/C=C\C/C=C\C/C=C\C/C=C\CCC(=O)O [DHA, Docosahexaenoic acid]
reduction of scratch wound area: ~50%
